Results published in patent publication US20250134870A1, “PATHWAY MODULATOR, PHARMACEUTICAL COMPOSITION HAVING SAME, USE THEREOF, AND THERAPEUTIC METHOD USING SAME” (Jiangsu Yahong Meditech Co., Ltd., priority 2021, published 2025).

Columns and labels:
[1] = Body weight and weight change rate of EAU rats (Example 6); assay type: in vivo, Lewis rats
From the text: Wherein, Day 0 referred to the day of immunization. The body weight of each rat was monitored twice a week after immunization.
Dosing started from Day 0 accurately according to the animal body weight for a total of 16 days.

[2] = tested on: imiquimod (IMQ)-induced psoriasis; assay: Imiquimod (IMQ)-induced psoriasis in mice: erythema, scales, thickness, total score, AUC (Example 8); assay type: in vivo, Balb/c mice; parameters: key to erythema score / scales score / thickness score: 0 = none, 1 = mild, 2 = moderate, 3 = obvious/severe; key to total score of erythema + scales + thickness: sum of three 0-3 scores (erythema + scales + thickening), 0-9
Experimental: All mice were shaved with a pet shaver to get an area of 2×3 cm on the back one day before the start of the experiment.
65 animals were randomly divided into groups according to body weight, and the dosing regimen was as follows.
Imiquimod (IMQ) cream: 62.5 mg of IMQ cream for each mouse in G2 to G7; Dexamethasone (DEX) ointment: 70 mg of ointment for each mouse in G4;
Tofacitinib: Tofacitinib was dissolved in dimethyl sulfoxide to 5 mg/mL, and 50 μL was added to IMQ cream for daily treatment.
Mice in Groups 2 to 7 received daily topical doses of 62.5 mg of IMQ cream on their shaved back from Day 0 to Day 7.
Dosing of the test compounds and reference substance was carried out according to Table 29 for 7 consecutive days.
To assess the severity of inflammation of skin on the back, the skin on the back was scored according to Table 30. Erythema, scales and thickening were scored independently on a scale of 0 to 3, 0, none; 1. mild; 2. moderate; 3. obvious/severe.
The inhibition rate was calculated according to the following formula: Inhibition rate=[AUC (solvent)−AUC (treatment)]/AUC (solvent)×100%. Wherein, solvent referred to the solvent group corresponding to the route of administration.

cocaine dependence = details: used in combination with cocaine; cited from earlier work
congestive heart failure = details: cited from earlier work
[3] = Day 0, 50 mg/kg oral QD (Nepicastat A)
[4] = Day 0, 100 mg/kg topical QD (Nepicastat B)
[5] = Day 0, group Nepicastat A (50 mpk oral)
[6] = Day 0, group Nepicastat B (100 mpk topical)
[7] = Day 1, 50 mg/kg oral QD (Nepicastat A)
[8] = Day 1, 100 mg/kg topical QD (Nepicastat B)
[9] = Day 1, group Nepicastat A (50 mpk oral)
[10] = Day 1, group Nepicastat B (100 mpk topical)
[11] = Day 2, 50 mg/kg oral QD (Nepicastat A)
[12] = Day 2, 100 mg/kg topical QD (Nepicastat B)
[13] = Day 2, group Nepicastat A (50 mpk oral)
[14] = Day 2, group Nepicastat B (100 mpk topical)
[15] = Day 3, 50 mg/kg oral QD (Nepicastat A)
[16] = Day 3, 100 mg/kg topical QD (Nepicastat B)
[17] = Day 3, group Nepicastat A (50 mpk oral)
[18] = Day 3, group Nepicastat B (100 mpk topical)
[19] = Day 4, 50 mg/kg oral QD (Nepicastat A)
[20] = Day 4, 100 mg/kg topical QD (Nepicastat B)
[21] = Day 4, group Nepicastat A (50 mpk oral)
[22] = Day 4, group Nepicastat B (100 mpk topical)
[23] = Day 5, 50 mg/kg oral QD (Nepicastat A)
[24] = Day 5, 100 mg/kg topical QD (Nepicastat B)
[25] = Day 5, group Nepicastat A (50 mpk oral)
[26] = Day 5, group Nepicastat B (100 mpk topical)
[27] = Day 6, 50 mg/kg oral QD (Nepicastat A)
[28] = Day 6, 100 mg/kg topical QD (Nepicastat B)
[29] = Day 6, group Nepicastat A (50 mpk oral)
[30] = Day 6, group Nepicastat B (100 mpk topical)
[31] = Day 7, 50 mg/kg oral QD (Nepicastat A)
[32] = Day 7, 100 mg/kg topical QD (Nepicastat B)
[33] = Day 7, group Nepicastat A (50 mpk oral)
[34] = Day 7, group Nepicastat B (100 mpk topical)
[35] = oral administration 50 mg/kg, Day 5 to Day 7

## NCc1c[nH]c(=S)n1[C@H]1CCc2c(F)cc(F)cc2C1 [Nepicastat]
[1]; Day 2, 25 mg/kg PO QD
  Rat body weight: 193.95 g
  Weight change rate (%): 3.25%
[1]; Day 2, 50 mg/kg PO QD
  Rat body weight: 194.04 g
  Weight change rate (%): 2.53%
[1]; Day 2, 100 mg/kg PO QD
  Rat body weight: 194.02 g
  Weight change rate (%): 2.11%
[1]; Day 6, 25 mg/kg PO QD
  Rat body weight: 204.67 g
  Weight change rate (%): 7.06%
[1]; Day 6, 50 mg/kg PO QD
  Rat body weight: 202.28 g
  Weight change rate (%): 6.90%
[1]; Day 6, 100 mg/kg PO QD
  Rat body weight: 205.97 g
  Weight change rate (%): 8.45%
[1]; Day 9, 25 mg/kg PO QD
  Rat body weight: 207.81 g
  Weight change rate (%): 9.26%
[1]; Day 9, 50 mg/kg PO QD
  Rat body weight: 206.07 g
  Weight change rate (%): 8.83%
[1]; Day 9, 100 mg/kg PO QD
  Rat body weight: 214.36 g
  Weight change rate (%): 12.84%
[1]; Day 13, 25 mg/kg PO QD
  Rat body weight: 214.28 g
  Weight change rate (%): 12.23%
[1]; Day 13, 50 mg/kg PO QD
  Rat body weight: 216.20 g
  Weight change rate (%): 14.24%
[1]; Day 13, 100 mg/kg PO QD
  Rat body weight: 223.98 g
  Weight change rate (%): 17.96%
[1]; Day 16, 25 mg/kg PO QD
  Rat body weight: 219.00 g
  Weight change rate (%): 12.36%
[1]; Day 16, 50 mg/kg PO QD
  Rat body weight: 218.42 g
  Weight change rate (%): 15.41%
[1]; Day 16, 100 mg/kg PO QD
  Rat body weight: 227.40 g
  Weight change rate (%): 19.77%
[1]; Day −1, 25 mg/kg PO QD
  Rat body weight: 188.31 g
  Weight change rate (%): 0.00%
[1]; Day −1, 50 mg/kg PO QD
  Rat body weight: 189.34 g
  Weight change rate (%): 0.00%
[1]; Day −1, 100 mg/kg PO QD
  Rat body weight: 189.92 g
  Weight change rate (%): 0.00%
[2]; 50 mg/kg oral and 100 mg/kg topical QD × 7 days
  progression and incidence of the disease: did not affect the progression and incidence of the disease, but showed efficacy at the later stages of the disease course (Day 5 to Day 7)
[2]; 100 mpk topical QD × 7 days
  efficacy on the clinical score of the skin: no significant efficacy
[2]; [3]
  erythema score: 0
  scales score: 0
[2]; [4]
  erythema score: 0
  scales score: 0
[2]; [5]
  thickness score: 0
  total score of erythema + scales + thickness: 0
[2]; [6]
  thickness score: 0
  total score of erythema + scales + thickness: 0
[2]; [7]
  erythema score: 0
  scales score: 0
[2]; [8]
  erythema score: 0
  scales score: 0
[2]; [9]
  thickness score: 0.6
  total score of erythema + scales + thickness: 0.6
[2]; [10]
  thickness score: 0.9
  total score of erythema + scales + thickness: 0.9
[2]; [11]
  erythema score: 1.4
  scales score: 0
[2]; [12]
  erythema score: 1.5
  scales score: 0
[2]; [13]
  thickness score: 1.2
  total score of erythema + scales + thickness: 2.6
[2]; [14]
  thickness score: 1.3
  total score of erythema + scales + thickness: 2.8
[2]; [15]
  erythema score: 1.5
  scales score: 0
[2]; [16]
  erythema score: 1.8
  scales score: 0
[2]; [17]
  thickness score: 1.6
  total score of erythema + scales + thickness: 3.1
[2]; [18]
  thickness score: 1.5
  total score of erythema + scales + thickness: 3.3
[2]; [19]
  erythema score: 1.6
  scales score: 1.1
[2]; [20]
  erythema score: 1.8
  scales score: 1.2
[2]; [21]
  thickness score: 1.4
  total score of erythema + scales + thickness: 4.1
[2]; [22]
  thickness score: 1.5
  total score of erythema + scales + thickness: 4.5
[2]; [23]
  erythema score: 1.6
  scales score: 1.6
[2]; [24]
  erythema score: 1.7
  scales score: 2.5
[2]; [25]
  thickness score: 1.3
  total score of erythema + scales + thickness: 4.5
[2]; [26]
  thickness score: 1.3
  total score of erythema + scales + thickness: 5.5
[2]; [27]
  erythema score: 1.7
  scales score: 1.9
[2]; [28]
  erythema score: 1.5
  scales score: 2.4
[2]; [29]
  thickness score: 1.4
  total score of erythema + scales + thickness: 5
[2]; [30]
  thickness score: 1.3
  total score of erythema + scales + thickness: 5.2
[2]; [31]
  erythema score: 1.6
  scales score: 2.1
[2]; [32]
  erythema score: 1.2
  scales score: 2.1
[2]; [33]
  thickness score: 1.4
  total score of erythema + scales + thickness: 5.1
[2]; [34]
  thickness score: 1.4
  total score of erythema + scales + thickness: 4.7
[2]; Mus musculus, 168 h, 50 mpk oral QD × 7 days, vs corresponding solvent group, read-out: inhibition rate (AUC of total clinical score)
  inhibition at 50 mg/kg: 23.6%
[2]; PO 50 mg/kg QD × 7 days, vs solvent group and control group
  therapeutic effect on clinical symptoms: mild therapeutic effect on clinical symptoms
[2]; [35]
  erythema: inhibited
  thickness: inhibited
[2]; topical administration 100 mg/kg, Day 4 to Day 7
  erythema: inhibited
Cocaine dependence
  positive effects of cocaine: inhibit the positive effects of cocaine
Congestive heart failure; further clinical studies
  effect in the treatment of heart failure: no effect in the treatment of heart failure
Congestive heart failure; patients, congestive heart failure
  tolerability: well tolerated in patients
